PubChem BioAssay (NCI)
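Tested at 5 concentrations; 48 h exposure; 96-well plates; endpoints linearly interpolated, else capped at highest concentration. At the TGI there is no net growth.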

Assays:
Test in all cases: NCI tumour cell line growth inhibition, 48 h
[1] = test system: M14 melanoma
[2] = test system: HOP-62 NSCLC
[3] = test system: OVCAR-8 ovarian
[4] = test system: SN12C renal
[5] = test system: SF-268 CNS
[6] = test system: KM12 colon
[7] = test system: IGROV1 ovarian
[8] = test system: NCI-H522 lung
[9] = test system: 786-0 renal
[10] = test system: HCT-116 colon
[11] = test system: CCRF-CEM leukemia
[12] = test system: HCC-2998 colon
[13] = test system: T-47D breast
[14] = test system: CAKI-1 renal
[15] = test system: SNB-19 CNS
[16] = test system: UACC-257 melanoma
[17] = test system: MDA-MB-435
[18] = test system: OVCAR-3 ovarian
[19] = test system: SR leukemia
[20] = test system: RXF 393 renal
[21] = test system: OVCAR-5 ovarian
[22] = test system: UACC-62 melanoma
[23] = test system: SK-MEL-5 melanoma
[24] = test system: SK-MEL-2 melanoma
[25] = test system: SW-620 colon
[26] = test system: SK-OV-3 ovarian
[27] = test system: A498 renal
[28] = test system: MCF7 breast
[29] = test system: SF-539 CNS
[30] = test system: DU-145 prostate
[31] = test system: HL-60(TB) leukemia
[32] = test system: NCI/ADR-RES ovarian
[33] = test system: SF-295 CNS
[34] = test system: MOLT-4 leukemia
[35] = test system: TK-10 renal
[36] = test system: HT29 colon
[37] = test system: PC-3 prostate
[38] = test system: LOX IMVI melanoma
[39] = test system: OVCAR-4 ovarian
[40] = test system: K-562 leukemia
[41] = test system: EKVX NSCLC
[42] = test system: MALME-3M melanoma
[43] = test system: SNB-75 CNS
[44] = test system: NCI-H23 lung
[45] = test system: HS 578T breast
[46] = test system: UO-31 renal
[47] = test system: MDA-N
[48] = test system: ACHN renal
[49] = test system: HCT-15 colon
[50] = test system: MDA-MB-231 breast
[51] = test system: COLO 205 colon
[52] = test system: A549 NSCLC
[53] = test system: BT-549 breast
[54] = test system: RPMI-8226 leukemia
[55] = test system: NCI-H226 lung
[56] = test system: U251 CNS
[57] = test system: SK-MEL-28 melanoma
[58] = test system: HOP-92 NSCLC
[59] = test system: NCI-H460 lung

SMILES: N#Cc1c(C#N)c(-c2ccccc2)n(Cc2ccccc2)c1N
- TGI [1]: > 100 µM
- TGI [2]: > 100 µM
- TGI [3]: 75.4 µM
- TGI [4]: > 100 µM
- TGI [5]: > 100 µM
- TGI [6]: > 100 µM
- TGI [7]: > 100 µM
- TGI [8]: > 100 µM
- TGI [9]: > 100 µM
- TGI [10]: > 100 µM
- TGI [11]: > 100 µM
- TGI [12]: > 100 µM
- TGI [13]: > 100 µM
- TGI [14]: > 100 µM
- TGI [15]: > 100 µM
- TGI [16]: > 100 µM
- TGI [17]: > 100 µM
- TGI [18]: > 100 µM
- TGI [19]: > 100 µM
- TGI [20]: > 100 µM
- TGI [21]: > 100 µM
- TGI [22]: > 100 µM
- TGI [23]: > 100 µM
- TGI [24]: > 100 µM
- TGI [25]: > 100 µM
- TGI [26]: > 100 µM
- TGI [27]: > 100 µM
- TGI [28]: > 100 µM
- TGI [29]: 63.4 µM
- TGI [30]: > 100 µM
- TGI [31]: > 100 µM
- TGI [32]: > 100 µM
- TGI [33]: > 100 µM
- TGI [34]: > 100 µM
- TGI [35]: > 100 µM
- TGI [36]: > 100 µM
- TGI [37]: > 100 µM
- TGI [38]: > 100 µM
- TGI [39]: > 100 µM
- TGI [40]: > 100 µM
- TGI [41]: > 100 µM
- TGI [42]: > 100 µM
- TGI [43]: 64.7 µM
- TGI [44]: > 100 µM
- TGI [45]: > 100 µM
- TGI [46]: > 100 µM
- TGI [47]: > 100 µM
- TGI [48]: > 100 µM
- TGI [49]: > 100 µM
- TGI [50]: 86.4 µM
- TGI [51]: > 100 µM
- TGI [52]: > 100 µM
- TGI [53]: > 100 µM
- TGI [54]: > 100 µM
- TGI [55]: > 100 µM
- TGI [56]: > 100 µM

SMILES: COC(=O)CN(CC(O)C(NC(C)=O)C(O)C=O)C(=O)OCc1ccccc1 (centres undefined)
- TGI [1]: > 100 µM
- TGI [2]: > 100 µM
- TGI [3]: > 100 µM
- TGI [4]: > 100 µM
- TGI [5]: > 100 µM
- TGI [6]: > 100 µM
- TGI [7]: > 100 µM
- TGI [8]: > 100 µM
- TGI [9]: > 100 µM
- TGI [10]: > 100 µM
- TGI [11]: > 100 µM
- TGI [12]: > 100 µM
- TGI [13]: > 100 µM
- TGI [14]: > 100 µM
- TGI [15]: > 100 µM
- TGI [16]: > 100 µM
- TGI [17]: > 100 µM
- TGI [18]: > 100 µM
- TGI [19]: > 100 µM
- TGI [20]: > 100 µM
- TGI [21]: > 100 µM
- TGI [22]: > 100 µM
- TGI [23]: > 100 µM
- TGI [24]: > 100 µM
- TGI [25]: > 100 µM
- TGI [26]: > 100 µM
- TGI [27]: > 100 µM
- TGI [28]: > 100 µM
- TGI [29]: > 100 µM
- TGI [57]: > 100 µM
- TGI [30]: > 100 µM
- TGI [31]: > 100 µM
- TGI [32]: > 100 µM
- TGI [33]: > 100 µM
- TGI [34]: > 100 µM
- TGI [35]: > 100 µM
- TGI [36]: > 100 µM
- TGI [37]: > 100 µM
- TGI [38]: > 100 µM
- TGI [39]: > 100 µM
- TGI [40]: > 100 µM
- TGI [41]: > 100 µM
- TGI [42]: > 100 µM
- TGI [43]: > 100 µM
- TGI [44]: > 100 µM
- TGI [45]: > 100 µM
- TGI [58]: > 100 µM
- TGI [46]: > 100 µM
- TGI [47]: > 100 µM
- TGI [48]: > 100 µM
- TGI [49]: > 31.6 µM
- TGI [50]: > 100 µM
- TGI [51]: > 100 µM
- TGI [52]: > 100 µM
- TGI [53]: > 100 µM
- TGI [54]: > 100 µM
- TGI [59]: > 100 µM
- TGI [55]: > 100 µM
- TGI [56]: > 100 µM

SMILES: COC1=N[C@H](C(C)C)C(OC)=N[C@H]1Cc1ccc(C[C@@H]2N=C(OC)[C@@H](C(C)C)N=C2OC)s1
- TGI [1]: > 100 µM
- TGI [2]: > 100 µM
- TGI [3]: > 100 µM
- TGI [4]: > 100 µM
- TGI [5]: > 100 µM
- TGI [6]: > 100 µM
- TGI [7]: > 100 µM
- TGI [8]: 63.2 µM
- TGI [9]: > 100 µM
- TGI [10]: > 100 µM
- TGI [11]: 50.3 µM
- TGI [12]: > 100 µM
- TGI [13]: 38.9 µM
- TGI [14]: > 100 µM
- TGI [15]: > 100 µM
- TGI [16]: 97.1 µM
- TGI [17]: > 100 µM
- TGI [18]: > 100 µM
- TGI [19]: 51 µM
- TGI [21]: 77.9 µM
- TGI [22]: > 100 µM
- TGI [23]: 47.8 µM
- TGI [24]: 49.3 µM
- TGI [25]: > 100 µM
- TGI [26]: > 100 µM
- TGI [28]: 59.4 µM
- TGI [29]: > 100 µM
- TGI [57]: > 100 µM
- TGI [30]: > 100 µM
- TGI [32]: > 100 µM
- TGI [33]: > 100 µM
- TGI [34]: 41 µM
- TGI [35]: > 100 µM
- TGI [36]: 96.3 µM
- TGI [37]: 69.2 µM
- TGI [38]: > 100 µM
- TGI [39]: > 100 µM
- TGI [40]: > 100 µM
- TGI [41]: > 100 µM
- TGI [42]: > 100 µM
- TGI [43]: > 100 µM
- TGI [44]: 72.9 µM
- TGI [45]: > 100 µM
- TGI [58]: > 100 µM
- TGI [46]: > 100 µM
- TGI [47]: > 100 µM
- TGI [48]: > 100 µM
- TGI [49]: > 100 µM
- TGI [50]: > 100 µM
- TGI [51]: > 100 µM
- TGI [52]: > 100 µM
- TGI [53]: > 100 µM
- TGI [59]: > 100 µM
- TGI [56]: 70.5 µM

SMILES: N#Cc1cc2c(cc1C#N)/C(=N\c1cccc(N)n1)N=C2Nc1cccc(N)n1
- TGI [1]: 34.1 µM
- TGI [2]: 70.2 µM
- TGI [3]: > 100 µM
- TGI [4]: > 100 µM
- TGI [5]: 49.2 µM
- TGI [6]: > 100 µM
- TGI [7]: > 100 µM
- TGI [8]: 22.6 µM
- TGI [9]: 30.6 µM
- TGI [10]: 26.7 µM
- TGI [11]: > 100 µM
- TGI [12]: 57.5 µM
- TGI [13]: > 100 µM
- TGI [14]: 34.1 µM
- TGI [15]: > 100 µM
- TGI [16]: > 100 µM
- TGI [17]: 59.7 µM
- TGI [18]: > 100 µM
- TGI [19]: > 100 µM
- TGI [21]: > 100 µM
- TGI [22]: 41 µM
- TGI [23]: 22.1 µM
- TGI [24]: > 100 µM
- TGI [25]: 60.1 µM
- TGI [26]: 42.4 µM
- TGI [28]: > 100 µM
- TGI [29]: 43.2 µM
- TGI [57]: 48.7 µM
- TGI [30]: > 100 µM
- TGI [31]: > 100 µM
- TGI [32]: > 100 µM
- TGI [33]: > 100 µM
- TGI [34]: > 100 µM
- TGI [35]: 68.8 µM
- TGI [36]: 85.7 µM
- TGI [37]: > 100 µM
- TGI [38]: > 100 µM
- TGI [40]: > 100 µM
- TGI [41]: > 100 µM
- TGI [42]: 84.1 µM
- TGI [43]: 76.1 µM
- TGI [44]: 40.1 µM
- TGI [45]: > 100 µM
- TGI [46]: 47 µM
- TGI [47]: 59.6 µM
- TGI [48]: 57.3 µM
- TGI [49]: 76.5 µM
- TGI [50]: 40.9 µM
- TGI [51]: 51.9 µM
- TGI [52]: > 100 µM
- TGI [53]: 84.3 µM
- TGI [54]: > 100 µM
- TGI [59]: > 100 µM
- TGI [55]: > 100 µM
- TGI [56]: > 100 µM
